Results taken from ChEMBL document CHEMBL4433219, “EC18 as a Tool To Understand the Role of HCN4 Channels in Mediating Hyperpolarization-Activated Current in Tissues” (ACS Med Chem Lett, 2019).

Columns and labels:
[1] = system: Cardiac muscle of left ventricle; assay: (§1) Effect on cardiac electrophysiological profile in Mongrel perfused dog heart left ventricular muscle stimulated at basic cycle length of 1000 milliseconds assessed as action potential time duration at 10% of repolarization at 10 uM measured after 25 mins by glass capillary microelectrode based electrophysiology assay (reference value: 69.9 +/- 10.84 milliseconds); assay type: functional, Canis lupus familiaris
[2] = system: Cardiac muscle of left ventricle; assay: as §1, with “Vmax” for “action potential time duration”, “1” for “10% of repolarization at 10”, “244.6” for “69.9”, “30.87 V/s)” for “10.84 milliseconds)”; assay type: functional, Canis lupus familiaris
[3] = system: Cardiac muscle of left ventricle; assay: as §1, with “Vmax” for “action potential time duration at 10% of repolarization”, “244.6” for “69.9”, “30.87 V/s)” for “10.84 milliseconds)”; assay type: functional, Canis lupus familiaris
[4] = system: Cardiac muscle of left ventricle; assay: as §1, with “maximum diastolic” for “action”, “potential” for “potential time duration at 10% of repolarization”, “-83.8” for “69.9”, “2.28 mV)” for “10.84 milliseconds)”; assay type: functional, Canis lupus familiaris
[5] = organism: Cavia porcellus; assay: Inhibition of HCN4 in guinea pig single sinoatrial node assessed as reduction in hyperpolarization activated current at 10 uM at holding potential of -120 mV by patch clamp assay relative to control
[6] = system: Cardiac muscle of left ventricle; assay: as §1, with “50%” for “10%”, “176” for “69.9”, “16.36” for “10.84”; assay type: functional, Canis lupus familiaris
[7] = system: Cardiac muscle of left ventricle; assay: as §1, with “conduction” for “action potential”, “time” for “time duration”, “1” for “10% of repolarization at 10”, “4.8” for “69.9”, “0.60” for “10.84”; assay type: functional, Canis lupus familiaris
[8] = system: Cardiac muscle of left ventricle; assay: as §1, with “at 25%” for “at 10%”, “at 1” for “at 10”, “value: 131.7” for “value: 69.9”, “+/- 13.1” for “+/- 10.84”; assay type: functional, Canis lupus familiaris
[9] = Selectivity ratio of EC50 for human HCN1 to EC50 for mouse HCN4
[10] = target: Potassium/sodium hyperpolarization-activated cyclic nucleotide-gated channel 1 (Mus musculus, UniProt O88704); assay: Inhibition of mouse HCN1 expressed in HEK293 cells assessed as reduction in hyperpolarization activated current at holding potential of -80 mV by patch clamp assay; assay type: cell-based
[11] = system: Cardiac muscle of left ventricle; assay: as §1, with “repolarization at 1 uM measured” for “repolarization at 10 uM measured”; assay type: functional, Canis lupus familiaris
[12] = target: T1, Potassium/sodium hyperpolarization-activated cyclic nucleotide-gated channel 4 (Homo sapiens, UniProt Q9Y3Q4); assay: Inhibition of human HCN4 expressed in HEK293 cells assessed as reduction in hyperpolarization activated current at holding potential of -80 mV by patch clamp assay; assay type: cell-based
T1 sequence (Q9Y3Q4 whole entry): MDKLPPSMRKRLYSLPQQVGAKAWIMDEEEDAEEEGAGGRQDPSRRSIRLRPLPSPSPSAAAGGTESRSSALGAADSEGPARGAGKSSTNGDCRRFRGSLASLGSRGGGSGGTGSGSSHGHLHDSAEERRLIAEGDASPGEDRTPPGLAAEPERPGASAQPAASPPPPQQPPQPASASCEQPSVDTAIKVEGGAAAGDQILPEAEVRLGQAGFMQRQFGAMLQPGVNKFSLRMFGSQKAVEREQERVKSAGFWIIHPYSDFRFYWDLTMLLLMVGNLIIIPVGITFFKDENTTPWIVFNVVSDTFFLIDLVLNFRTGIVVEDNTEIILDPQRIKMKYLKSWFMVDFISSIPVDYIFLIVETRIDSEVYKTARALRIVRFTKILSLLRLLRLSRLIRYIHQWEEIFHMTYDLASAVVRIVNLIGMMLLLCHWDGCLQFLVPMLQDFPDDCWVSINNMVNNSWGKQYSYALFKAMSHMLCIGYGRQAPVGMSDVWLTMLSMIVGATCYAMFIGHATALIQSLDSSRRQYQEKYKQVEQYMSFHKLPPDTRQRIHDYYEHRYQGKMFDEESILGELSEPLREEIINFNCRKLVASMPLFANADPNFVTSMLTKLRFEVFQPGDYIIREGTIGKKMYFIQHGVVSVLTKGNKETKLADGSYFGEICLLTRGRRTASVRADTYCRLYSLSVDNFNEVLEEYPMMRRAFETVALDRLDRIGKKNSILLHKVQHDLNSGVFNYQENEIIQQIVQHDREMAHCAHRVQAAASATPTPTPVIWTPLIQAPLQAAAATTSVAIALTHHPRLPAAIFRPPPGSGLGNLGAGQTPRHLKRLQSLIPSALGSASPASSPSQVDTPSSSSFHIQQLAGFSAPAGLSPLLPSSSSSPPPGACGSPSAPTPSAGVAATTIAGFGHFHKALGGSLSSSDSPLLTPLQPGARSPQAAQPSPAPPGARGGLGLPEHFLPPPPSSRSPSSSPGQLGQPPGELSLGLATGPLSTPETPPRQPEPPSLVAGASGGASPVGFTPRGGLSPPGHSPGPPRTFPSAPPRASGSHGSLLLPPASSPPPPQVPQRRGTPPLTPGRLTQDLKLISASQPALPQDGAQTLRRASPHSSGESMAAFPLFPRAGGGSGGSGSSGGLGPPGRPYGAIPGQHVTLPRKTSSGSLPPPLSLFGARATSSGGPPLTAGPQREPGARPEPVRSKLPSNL

[13] = Negative chronotropic activity at HCN4 in guinea-pig spontaneously beating isolated atria; settings: Cavia porcellus
[14] = system: Cardiac muscle of left ventricle; assay: as §1, with “amplitude” for “time duration”, “1” for “10% of repolarization at 10”, “104.1” for “69.9”, “2.7 mV)” for “10.84 milliseconds)”; assay type: functional, Canis lupus familiaris
[15] = Selectivity ratio of EC50 for human HCN2 to EC50 for mouse HCN4
[16] = system: Cardiac muscle of left ventricle; assay: as §1, with “amplitude” for “time duration at 10% of repolarization”, “104.1” for “69.9”, “2.7 mV)” for “10.84 milliseconds)”; assay type: functional, Canis lupus familiaris

Sequence of Potassium/sodium hyperpolarization-activated cyclic nucleotide-gated channel 1 (O88704 whole entry): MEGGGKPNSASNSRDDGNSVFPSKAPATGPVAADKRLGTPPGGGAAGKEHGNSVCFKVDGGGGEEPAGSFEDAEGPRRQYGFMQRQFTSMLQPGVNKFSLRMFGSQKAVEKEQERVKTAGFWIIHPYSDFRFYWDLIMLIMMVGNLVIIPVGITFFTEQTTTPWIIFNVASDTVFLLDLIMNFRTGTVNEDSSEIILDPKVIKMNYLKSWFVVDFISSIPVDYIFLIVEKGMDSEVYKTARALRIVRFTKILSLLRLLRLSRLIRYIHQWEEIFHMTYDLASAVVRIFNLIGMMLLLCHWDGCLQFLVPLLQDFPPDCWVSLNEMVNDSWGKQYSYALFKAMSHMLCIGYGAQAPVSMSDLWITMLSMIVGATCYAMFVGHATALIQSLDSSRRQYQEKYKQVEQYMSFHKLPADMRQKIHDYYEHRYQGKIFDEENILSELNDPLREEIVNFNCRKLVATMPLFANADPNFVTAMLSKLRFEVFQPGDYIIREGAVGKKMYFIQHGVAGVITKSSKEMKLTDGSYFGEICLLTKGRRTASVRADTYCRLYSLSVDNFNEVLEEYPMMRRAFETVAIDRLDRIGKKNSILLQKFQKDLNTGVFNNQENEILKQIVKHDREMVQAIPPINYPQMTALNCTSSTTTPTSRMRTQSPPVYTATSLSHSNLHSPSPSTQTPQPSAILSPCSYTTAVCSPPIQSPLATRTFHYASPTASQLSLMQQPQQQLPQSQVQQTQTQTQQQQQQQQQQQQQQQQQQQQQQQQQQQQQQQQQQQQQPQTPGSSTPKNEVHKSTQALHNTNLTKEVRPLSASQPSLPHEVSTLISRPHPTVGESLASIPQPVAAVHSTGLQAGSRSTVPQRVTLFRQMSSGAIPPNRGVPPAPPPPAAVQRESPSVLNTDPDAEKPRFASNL

COc1ccc(CCN(C)[C@@H]2CCC[C@H](N3CCc4cc(OC)c(OC)cc4CC3=O)C2)cc1OC (racemic)
Time [1]: 55.7 ms | Activity [2]: 232.9 V/s | Activity [3]: 140.6 V/s | Activity [4]: -83 mV | inhibition [5]: 67% | Time [6]: 179.9 ms | Time [7]: 4.7 ms | Time [8]: 121.6 ms | Ratio EC50 [9]: 5 | EC50 [10]: 21 µM | Time [11]: 58.6 ms | EC50 [12]: 3.98 µM | IC50 [13]: 9.9 µM | Activity [14]: 103.1 mV | Ratio EC50 [15]: 5 | Activity [16]: 102.3 mV
